Results on 1 molecule are retold here after BindingDB's records for doi:10.1016/S0960-894X(01)81219-1 (1993).

Each structure is given as a SMILES string.

The assay can be described thus: The inhibitory constant was evaluated against Endothelin A receptor in rabbit renal artery tissue.

`CC[C@H](C)[C@H](NC(=O)[C@H](CC(=O)O)NC(=O)[C@H](CCCN)NC(=O)[C@@H](Cc1c[nH]c2ccccc12)NC(C)=O)C(=O)N[C@H](C(=O)N[C@@H](Cc1c[nH]c2ccccc12)C(=O)O)[C@@H](C)CC` [(S)-3-{(S)-2-[(R)-2-Acetylamino-3-(1H-indol-3-yl)-propionylamino]-5-amino-pentanoylamino}-N-((1S,2R)-1-{(1S,2R)-1-[(S)-1-carboxy-2-(1H-indol-3-yl)-ethylcarbamoyl]-2-methyl-butylcarbamoyl}-2-methyl-butyl)-succinamic acid] yielded a half-inhibitory concentration (IC50) of 130 nM.
